Structures are written as SMILES.

The values that follow come from patent US8269000B2, “Substituted pyrimidine and triazine compounds” (Gruenenthal GmbH, priority 2008, dated 2012).

One assay has as its target T1, rat B1R (Rattus norvegicus, UniProt P97583).
T1 construct: expressed in transfected cells; host or cells: CHO K1 cells
T1 sequence (P97583 1-337): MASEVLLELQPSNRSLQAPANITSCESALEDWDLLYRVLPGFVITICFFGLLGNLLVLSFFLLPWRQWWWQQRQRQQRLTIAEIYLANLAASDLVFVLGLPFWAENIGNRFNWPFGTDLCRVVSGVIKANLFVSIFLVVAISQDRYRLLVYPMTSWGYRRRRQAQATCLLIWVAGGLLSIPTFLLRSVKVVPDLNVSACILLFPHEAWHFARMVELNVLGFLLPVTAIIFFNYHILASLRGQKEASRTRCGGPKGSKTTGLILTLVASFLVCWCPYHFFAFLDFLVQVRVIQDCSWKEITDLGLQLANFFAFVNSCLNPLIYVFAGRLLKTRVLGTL
The assay can be described thus: FLIPR Ca2+ functional study on bradykinin receptor 1 (rB1R CHO K1 cells). It is filed as cell-based. The note with it: % inhibition rat B1R at 10 μM. The method, boiled down: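 CHO K1 cells stably expressing human or rat B1R were loaded with Fluo-4 and read on FLIPR (ex 488/em 540 nm, peak counts). Test compound (10 μM, or a concentration range for IC50) was added first for % activation versus control agonist; after 10-20 min, EC80 Lys-Des-Arg9-bradykinin (human) or Des-Arg9-bradykinin (rat) was added, giving % inhibition of maximum. n=2-3, N≥2.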
For the molecule `COc1cc(C)c(S(=O)(=O)N2c3ccccc3C[C@H]2COc2ccnc(N3CCN(CC4CCN(C)CC4)CC3)n2)c(C)c1` [H_CC-020, (2S)-1-(4-methoxy-2,6-dimethylphenyl)sulfonyl-2-[[2-[4-[(1-methyl-4-pipendinyl)methyl]-1-piperazinyl]-4-pyrimidinyl]oxymethyl]indoline], the “% inh. (rat B1R) 10 μM” value turned out to be 93%.

Consider `COc1cc(C)c(S(=O)(=O)N2CCC[C@H]2COc2ccnc(N3CCC(c4nc(-c5ccncc5)no4)CC3)n2)c(C)c1` [H_CC-048], for which the “% inh. (rat B1R) 10 μM” value was 63%. Same read-out and setting: then `COc1cc(C)c(S(=O)(=O)N(C)CCOc2nccc(N3CCN(CC4CCN(C)CC4)CC3)n2)c(C)c1` [G_CC-007, 4-methoxy-N,2,6-trimethyl-N-[2-[[4-[4-[(1-methyl-4-piperidinyl)methyl]-1-piperazin]-2-pyrimidinyl]oxy]ethyl]benzenesulfonamide], with 95%.

The assay is the same for the next values; noted with them: CHO-K1, % inhibition rat B1R at 10 μM, read-out: % inh. (rat B1R) 10 μM.
For `COc1cc(C)c(S(=O)(=O)N(C)C(COc2nccc(N3CCC(O)(c4ccncc4)CC3)n2)c2ccccc2)c(C)c1` (stereo not drawn) [G_CC-112, N-[2-[4-(4-hydroxy-4-pyridin-4-yl-piperidin-1-yl)-pyrimidin-2-yl]oxy-1-phenyl-ethyl]-4-methoxy-N,2,6-trimethyl-benzenesulfonic acid amide], the inhibition at 10 µM came to 88%. In the case of `COc1cc(C)c(S(=O)(=O)N(C)CCOc2nccc(N3CCC4(CC3)OCc3ccccc34)n2)c(C)c1` [G_CC-029, 4-methoxy-N,2,6-trimethyl-N-[2-[[4-(1′-spiro[1H-isobenzofuran-3,4′-piperidin]yl)-2-pyrimidinyl]oxy]ethyl]benzenesulfonamide], the inhibition at 10 µM was 52%.

For the molecule `COc1cc(C)c(S(=O)(=O)N2c3ccccc3C[C@H]2COc2ccnc(N3CCN(C4CCN(C)CC4)CC3)n2)c(C)c1` [H_CC-027, (2S)-1-(4-methoxy-2,6-dimethylphenyl)sulfonyl-2-[[2-[4-(1-methyl-4-piperidinyl)-1-piperazinyl]-4-pyrimidinyl]oxymethyl]indoline], the inhibition at 10 µM is 91%.

Regarding `CCCCC1(N(C)C)CCN(CCN(C)c2ccnc(OCC3CCCCN3S(=O)(=O)c3c(C)cc(OC)cc3C)n2)CC1` (stereo not drawn) [G_CC-074, 2-(4-butyl-4-dimethylamino-piperidin-1-yl)-ethyl-[2-[[1-[(4-methoxy-2,6-dimethyl-phenyl)sulfonyl]-piperidin-2-yl]-methoxy]-pyrimidin-4-yl]-methyl-amine], the inhibition at 10 µM was found to be 102%.

As to `COc1cc(C)c(S(=O)(=O)N2c3ccccc3C[C@H]2COc2nccc(N(C)CCN3CCC(c4ccccc4)(N4CCCC4)CC3)n2)c(C)c1` [G_CC-096, [2-[[(2S)-1-[(4-methoxy-2,6-dimethyl-phenyl)sulfonyl]-2,3-dihydro-1H-indol-2-yl]-methoxy]-pyrimidin-4-yl]-methyl-[2-(4-phenyl-4-pyrrolidin-1-yl-piperidin-1-yl)-ethyl]-amine], the inhibition at 10 µM amounted to 101%. With `COc1cc(C)c(S(=O)(=O)N2CCC[C@H]2COc2nccc(N3CCC(OCCN4CCCC4)(c4cccc(F)c4)CC3)n2)c(C)c1` [G_CC-086, 4-[4-(3-fluorophenyl)-4-(2-pyrrolidin-1-yl-ethoxy)-piperidin-1-yl]-2-[[(2S)-1-[(4-methoxy-2,6-dimethyl-phenyl)sulfonyl]-pyrrolidin-2-yl]-methoxy]-pyrimidine], the inhibition at 10 µM worked out at 105%. With `COc1cc(C)c(S(=O)(=O)N2CCCCC2COc2ccnc(N3CCC(OCCN4CCCC4)(c4cccnc4)CC3)n2)c(C)c1` (stereo not drawn) [H_CC-035, 4-[[1-(4-methoxy-2,6-dimethylphenyl)sulfonyl-2-piperidinyl]methoxy]-2-[4-(3-pyridyl)-4-(2-1-pyrrolidinylethoxy)-1-piperidinyl]pyrimidine], the inhibition at 10 µM is 86%.

`COc1cc(C)c(S(=O)(=O)N2c3ccccc3C[C@H]2COc2ccnc(N(C)CCN3CCC(c4ccccc4)(N(C)C)CC3)n2)c(C)c1` [H_CC-057, 2-(4-dimethylamino-4-phenyl-piperidin-1-yl)-ethyl-[4-[[(2S)-1-[(4-methoxy-2,6-dimethyl-phenyl)sulfonyl]-2,3-dihydro-1H-indol-2-yl]-methoxy]-pyrimidin-2-yl]-methyl-amine]: the inhibition at 10 µM was found to be 98%. Still for that read-out and setting: the value for `CCCCC1(N(C)C)CCN(c2nccc(OC[C@@H]3CCCN3S(=O)(=O)c3c(C)cc(OC)cc3C)n2)CC1` [H_CC-068, [4-butyl-1-[4-[[(2S)-1-[(4-methoxy-2,6-dimethyl-phenyl)sulfonyl]-pyrrolidin-2-yl]-methoxy]-pyrimidin-2-yl]-piperidin-4-yl]-dimethyl-amine] was 65%. In the case of `COc1cc(C)c(S(=O)(=O)N2CCC[C@H]2COc2ccnc(N3CCC(N4CCN(C)CC4)CC3)n2)c(C)c1` [H_CC-010, 4-[[(2S)-1-(4-methoxy-2,6-dimethylphenyl)sulfonyl-2-pyrrolidinyl]methoxy]-2-[4-(4-methyl-1-piperazinyl)-1-piperidinyl]pyrimidine], the inhibition at 10 µM is 100%. For `COc1cc(C)c(S(=O)(=O)N2CCC[C@H]2COc2ccnc(N(C)CCCN3CCC(c4ccccc4)(N(C)C)CC3)n2)c(C)c1` [H_CC-046, 3-(4-dimethylamino-4-phenyl-piperidin-1-yl)-propyl-[4-[[(2S)-1-[(4-methoxy-2,6-dimethyl-phenyl)sulfonyl]-pyrrolidin-2-yl]-methoxy]-pyrimidin-2-yl]-methyl-amine], the inhibition at 10 µM is 89%. The same measure, in the same setting: the value for `COc1cc(C)c(S(=O)(=O)N2CCCCC2COc2ccnc(N(C)CCN3CCC(Oc4ccncc4)CC3)n2)c(C)c1` (stereo not drawn) [H_CC-049, [4-[[1-[(4-methoxy-2,6-dimethyl-phenyl)sulfonyl]-piperidin-2-yl]-methoxy]-pyrimidin-2-yl]-methyl-[2-(4-pyridin-4-yloxy-piperidin-1-yl)-ethyl]amine] was 94%.

On to `COc1cc(C)c(S(=O)(=O)N2CCC[C@H]2COc2nccc(N(C)CCN3CCC(c4ccccc4)(N4CCCC4)CC3)n2)c(C)c1` [G_CC-091, [2-[[(2S)-1-[(4-methoxy-2,6-dimethyl-phenyl)sulfonyl]-pyrrolidin-2-yl]-methoxy]-pyrimidin-4-yl]-methyl-[2-(4-phenyl-4-pyrrolidin-1-yl-piperidin-1-yl)-ethyl]-amine], for which the inhibition at 10 µM was 101%. The same measure, in the same setting: the value for `COc1cc(C)c(S(=O)(=O)N2CCCCC2COc2nccc(N3CCC4(CC3)CCN(c3ccc(F)cc3)C4=O)n2)c(C)c1` (stereo not drawn) [G_CC-038, 3-(4-fluorophenyl)-8-[2-[[1-(4-methoxy-2,6-dimethylphenyl)sulfonyl-2-piperidinyl]methoxy]-4-pyrimidinyl]-3,8-diazaspiro[4.5]decan-4-one] was 94%; that for `COc1cc(C)c(S(=O)(=O)N(C)C(COc2nccc(N3CCC4(CCN(Cc5ccccc5)C4=O)CC3)n2)c2ccccc2)c(C)c1` (stereo not drawn) [G_CC-061, N-[2-[[4-(3-benzyl-4-oxo-3,8-diazaspiro[4.5]decan-8-yl)-2-pyrimidinyl]oxy]-1-phenylethyl]-4-methoxy-N,2,6-trimethylbenzenesulfonamide] was 81%. Consider `COc1cc(C)c(S(=O)(=O)N2CCCCC2COc2nccc(N3CCC(Oc4cnccn4)CC3)n2)c(C)c1` (stereo not drawn) [G_CC-079, 2-[[1-[(4-methoxy-2,6-dimethyl-phenyl)sulfonyl]-piperidin-2-yl]-methoxy]-4-(4-pyrazin-2-yloxy-piperidin-1-yl)-pyrimidine], for which the inhibition at 10 µM came to 98%.

For the molecule `COc1cc(C)c(S(=O)(=O)N2CCCCC2COc2ccnc(N3CCC(O)(c4ccccn4)CC3)n2)c(C)c1` (stereo not drawn) [H_CC-083, 1-[4-[[1-[(4-methoxy-2,6-dimethyl-phenyl)sulfonyl]-piperidin-2-yl]-methoxy]-pyrimidin-2-yl]-4-pyridin-2-yl-piperidin-4-ol], the inhibition at 10 µM worked out at 59%.

For `CCCCC1(N(C)C)CCN(CCN(C)c2nccc(OC3CN(S(=O)(=O)c4c(C)cc(OC)cc4C)C3)n2)CC1` [H_CC-071, 2-(4-butyl-4-dimethylamino-piperidin-1-yl)-ethyl-[4-[1-[(4-methoxy-2,6-dimethyl-phenyl)sulfonyl]-azetidin-3-yl]oxy-pyrimidin-2-yl]-methyl-amine], the inhibition at 10 µM stood at 55%. Still for that read-out and setting: the value for `COc1cc(C)c(S(=O)(=O)N(C)CCOc2nccc(N3CCC4(CC3)C(=O)NCC4c3cccc(C(F)(F)F)c3)n2)c(C)c1` (stereo not drawn) [G_CC-043, 4-methoxy-N,2,6-trimethyl-N-[2-[[4-[4-oxo-1-[3-(trifluoromethyl)phenyl]-3,8-diazaspiro[4.5]decan-8-yl]-2-pyrimidinyl]oxy]ethyl]benzenesulfonamide] was 70%; that for `COc1cc(C)c(S(=O)(=O)N2CCCC(Oc3ccnc(N4CCC(c5ccccc5)(N(C)C)CC4)n3)C2)c(C)c1` (stereo not drawn) [H_CC-064, [1-[4-[1-[(4-methoxy-2,6-dimethyl-phenyl)sulfonyl]-piperidin-3-yl]oxy-pyrimidin-2-yl]-4-phenyl-piperidin-4-yl]-dimethyl-amine] was 61%. `COc1cc(C)c(S(=O)(=O)N2CCCCC2COc2nccc(N3CCC(c4cccc(F)c4)(N4CCN(C)CC4)CC3)n2)c(C)c1` (stereo not drawn) [G_CC-104, 4-[4-(3-fluorophenyl)-4-(4-methyl-piperazin-1-yl)-piperidin-1-yl]-2-[[1-[(4-methoxy-2,6-dimethyl-phenyl)sulfonyl]-piperidin-2-yl]-methoxy]-pyrimidine]: the inhibition at 10 µM turned out to be 101%.
